Results taken from US5723463A, “Pyrido [3,2-E]pyrazinones with anti-asthmatic action and processes for their manufacture” (ASTA Medica Aktiengesellschaft, priority 1995, dated 1998).

Experiments:
[1] = tested on: Histamine precontracted trachea; test: Influence on the trachea precontracted using histamine; details: Cavia porcellus, guinea pig trachea
Experimental: Guinea pigs are exsanguinated under narcosis. The trachea is then prepared free from adjacent tissue and cut into five equal parts (at least 3 trachea-rings wide). The trachea parts are suspended in a bath filled with a nutrient solution (Krebs-Henseleit). The strength of contraction of the trachea can be measured using force transducers. After suspension, a 15-minute acclimatisation period is allowed. The trachea is then totally relaxed using isoprenaline (1×10^-7 mol/l). The bath vessel is then rinsed. A contraction maximum is triggered using metacholine (10×10^-5 mol/l). The bath vessel is then rinsed again. Histamine ([…]) is then added. The contraction maximum is reached after approx. 10 minutes. The test substance is then added to the bath in increasing concentration and the contraction-triggering effect determined in percent to an untreated control. The mean contraction-triggering concentration is calculated using regression apparatuses. To check the function of the organs, isoprenaline (1×10^-5 mol/l) is then added to the bath to see whether the organs are still able to relax.

[2] = tested on: Ovalbumin-induced eosinophilia; test: Asthmatic late phase reaction: ovalbumin-induced eosinophilia in guinea pigs (BAL); format: in vivo, guinea pig; details: 1 mg/kg i.p., 2 hours before allergen challenge, BAL 24 hours after
Experimental: Male guinea pigs (250-300 g, Pirbright white, Charles River Wiga) are actively sensitised by s.c. injection of ovalbumin (10 μg+100 mg aluminium hydroxide) and boosted 2 weeks later. One week after the boosting (10 μg+100 mg aluminium hydroxide) the animals are exposed of an aerosol of nebulised 0.5 % ovalbumin solution for 20 seconds. 24 hours later, the bronchoalveolar lavage (BAL) is carried out using 2×5 ml sodium chloride solution on animals sacrificed with an overdose of pentobarbital. The lavage liquid is pooled and centrifuged for 10 minutes. The cell pellet is suspended in 1 ml physiological sodium chloride solution and the eosinophils are counted microscopically in a counting chamber using a Becton-Dickinson eosinophil kit. The eosinophils are counted for each guinea pig. The mean value is calculated for each group. The inhibition of the eosinophils for the group treated with substance is obtained using the formula:
(A-C)-(B-C)/(A-C)×100=% inhibition
A=Eosinophils in the untreated control group challenged with ovalbumin
B=Eosinophils in the group treated with the substance and challenged with ovalbumin
C=Eosinophils in the control group not challenged with ovalbumin
The substance was applied 2 hours before allergen challenge p,o, (in 1% methocel) or i.p. (in 0.5% methocel). The control groups receive 1% methocel p.o. or 0.5% methocel i.p. 2 hours before allergen challenge.

[3] = tested on: PDE IV; test: PDE IV inhibition (in vitro), cAMP-specific PDE of cytosol of human polymorphonuclear leucocytes; format: biochemical; details: substrate 0.5 μM cAMP, motapizon 1 μM
Experimental: (§1) Phosphodiesterase (PDE) activity is determined with a few modifications (Bauer, A. C.; Schwabe, U., An improved assay of cyclic 3',5'-nucleotide phosphodiesterase with QAE Sephadex A-25. Naunyn-Schmiedeberg's Arch. Pharmacol. 311 193-198 (1980)) after the method described by Thompson et al. (Thompson, W. J.; Appleman, M. M., Assay of cyclic nucleotide phosphodiesterase and resolution of multiple molecular forms of the enzyme. Adv. Cycl. Nucl. Res. 10 69-92 (1979)) The reaction mixture contains 40 mM Tris-HCl (pH 7.4), 5 mM MgCl2, 0.5 μM cAMP or cGMP, [^3 H]cAMP or [^3 H]cGMP (approx. 20,000 cpm/test) and the other components needed to record the individual isoenzymes (see below). The final volume is 200 μl. Test substances are prepared as stock solutions in DMSO. The DMSO concentration in the reaction mixture is the same or less than 1% v/v. The PDE activity is not influenced at this DMSO concentration. […] The radioactivity of the individual fractions is recorded using scintigraphy.
The PDE IV (cAMP-specific) activity is determined after the method described by Schudt et al. (Schudt C.; Winter S.; Forderkurz S.; Hatzelmann A.; Ullrich V., Influence of selective phosphodiesterase inhibitors on human neutrophil functions and levels of cAMP and Ca. Naunyn-Schmiedeberg's Arch. Pharmacol. 344, 682-690 (1991)) describe a method in the cytosol of human polymorpho-nuclear leucocytes. […]

[4] = molecular target: T1, PDE V (Homo sapiens, UniProt O76074); test: PDE V inhibition (in vitro), cGMP-specific PDE isolated from human blood platelets; format: biochemical; details: substrate 0.5 μM cGMP
T1 construct: PDE V (cGMP-specific) is isolated from human blood platelets; from tissue; host or cells: human blood platelets
Experimental: as §1, with “concentration. After pre-incubation for 5 minutes at 37° C. the reaction is started by adding the substrate (cAMP or cGMP). The samples are incubated for a further 15 minutes at 37° C. The reaction is stopped by adding 50 μl 0.2N HCl. The samples remain in the ice for a further 10 minutes.” for “concentration.”, “scintigraphy. […]” for “scintigraphy.”

IC50 [1]: 700 nM
IC50 [3]: 100 nM
IC50 [4]: 95 nM
Compound: CCCn1c(=O)c2c(C)nc(CC)n2c2nc(OC)ccc21 [embodiment 1, 1-ethyl-8-methoxy-3-methyl-5-propyloimidazo[1,5-a]pyrido[3,2-e]-pyrazinone]
Ovalbumin-induced eosinophilia: % inhibition of eosinophils [2]: 74%
